According to patent US20240100172A1, “METHODS AND COMPOUNDS FOR TARGETED AUTOPHAGY” (Hangzhou Jijing Pharmaceutical Technology Limited, priority 2020, published 2024):
Marks after values point to notes of the source that are not given here.

Columns and labels:
KRAS = molecular target: T1, KRAS (Homo sapiens, UniProt P01116, G12C); assay: KRAS levels in NCI-H2030 cells (Western blot); format: cell-based
T1 construct: endogenous in cells; host or cells: NCI-H2030
Experimental: The following protocol was used to test the effect of exemplary compounds on KRAS levels in NCI-H2030 cells.
On Day 1, seed NCI-N2030 cells were placed into 6-well plates (3.5×10^5 cells/well/2 mL) and incubated for 24 hours. On Day 2, 6 μL compound solutions were added into testing wells in order to obtain compound concentrations of 3.33 μM and 10 μM—with DMSO concentrations of 0.3%. The wells were thoroughly agitated and incubated for 24 hours. On Day 3, the supernatant in the testing wells was discarded, and the testing wells were washed once with 1 mL of cold PBS. Then, 100 μL of RIPA buffer (Boston BioProducts BP-115D) was added to the testing wells with 1× complete protease inhibitor (Roche, #4693116001) and phosphatase inhibitor (Roche, #4906837001). The wells were then agitated by pipetting a few times, the testing plates were held on ice for 30 minutes to affect complete lysis of the cells. The cell lysate from the testing wells was then collected into EP tubes, and the tubes were spun at about 20000×g for 10 minutes at 4° C., before collecting the supernatant from the testing cells.
Protein concentrations in the collected supernatants were measured using BCA methods. The cell lysate was mixed with 5× NuPAGE SDS Loading Buffer and heated at 100° C. for 10 minutes in a heat block. Then 15 μL samples (15 μg) were loaded into 26-well SDS-PAGE gel (Novex, WXP81626BOX) and the gels were processed at 120 V for 1.5 hours, prior to electrotransfer to an NC membrane using a wet-transfer method with 250 mA for 1.5 hours. The resulting membrane was then blocked for 1 hours with LICOR blocking buffer (LI-COR, 927-70001), and was then incubated with a primary antibody 1:1000 (Anti-KRAS (LS-C175665)) that was previously prepared in block buffer at 4° C. overnight. Then, the membrane was washed three times with 1×TBST for 5 minutes each washing, and the membrane was incubated with a secondary antibody GAM 1:5000 (anti-mouse IgG (LI-COR, 926-68070)) for 1 hour at room temperature. The membrane was then washed three times with 1×TBST for 5 minutes each washing, and the membrane was read on LiCOR.
Table 2 below summarizes the normalized KRAS levels in NCI-H2030 cells that were treated with the exemplary compounds of Examples 1-3 for 24 hours.

BTK = molecular target: T2, BTK (Homo sapiens, UniProt Q06187); assay: BTK levels in NAMALWA cells (Western blot); format: cell-based; settings: 4 hours EBSS starvation
T2 construct: endogenous in cells; host or cells: NAMALWA
Experimental: The following protocol was used to test the effect of exemplary compounds on BTK levels in NAMALWA cells.
On Day 1, NAMALWA cells were seeded in 6 well plates at concentration of 2×10^6/well and were incubated overnight. On Day 2, the cells were treated at indicated concentrations following 4 hours of starvation in Earle's Balanced Salt Solution (EBSS, Gibco, #24010-043). After compound treatment for 24 hours, cells were collected and samples were prepared. Fresh, ice cold 1×RIPA lysis buffer supplemented with protease and phosphatase inhibitors was then added to the cell samples, followed by incubation on ice for 30 minutes, and then cells samples were collected. Cell samples were then centrifuged at 4° C., 12,000 rpm for 15 minutes and the resulting supernatant was collected. Protein concentrations within the collected samples were then measured using BCA kit (Solarbio, PC0020), and the cell lysate was mixed with SDS loading buffer and heated at 100° C. for 5 minutes.
15 μg of protein from the samples prepared above was loaded in 4-12% Bis-Tris Gels in 1×MOPS buffer, and the samples were run at 120 V for 120 min. Transfer of the resulting gels was then carried out using the Transblot system with NC membrane, and the membranes were blocked with 5% BSA in TBST for 1 hr at room temperature. Membrane hybridization was then carried out overnight at 4° C. with primary antibodies (anti-BTK, Cell Signaling Technology #8547, Rabbit, 1:1000 diluted in 1% BSA in TBST), and the resulting membranes were washed with TBST for 3×10 min at RT, and then incubated with second antibodies (Goat anti-Rabbit IgG H&L, IRDye® 800CW, LI-COR, 926-32211, 1:5000 diluted in 1% BSA in TBST) in 1% BSA for 1 hr at room temperature. After washing the resulting membranes with TBST for 10 min, 3 times at room temperatures, the membranes were imaged using a Li-COR imaging system.
Table 3 below summarizes the normalized BTK levels in NAMALWA cells treated with the exemplary compounds of Examples 6-8 for 24 hours.

T2 sequence (Q06187 whole entry): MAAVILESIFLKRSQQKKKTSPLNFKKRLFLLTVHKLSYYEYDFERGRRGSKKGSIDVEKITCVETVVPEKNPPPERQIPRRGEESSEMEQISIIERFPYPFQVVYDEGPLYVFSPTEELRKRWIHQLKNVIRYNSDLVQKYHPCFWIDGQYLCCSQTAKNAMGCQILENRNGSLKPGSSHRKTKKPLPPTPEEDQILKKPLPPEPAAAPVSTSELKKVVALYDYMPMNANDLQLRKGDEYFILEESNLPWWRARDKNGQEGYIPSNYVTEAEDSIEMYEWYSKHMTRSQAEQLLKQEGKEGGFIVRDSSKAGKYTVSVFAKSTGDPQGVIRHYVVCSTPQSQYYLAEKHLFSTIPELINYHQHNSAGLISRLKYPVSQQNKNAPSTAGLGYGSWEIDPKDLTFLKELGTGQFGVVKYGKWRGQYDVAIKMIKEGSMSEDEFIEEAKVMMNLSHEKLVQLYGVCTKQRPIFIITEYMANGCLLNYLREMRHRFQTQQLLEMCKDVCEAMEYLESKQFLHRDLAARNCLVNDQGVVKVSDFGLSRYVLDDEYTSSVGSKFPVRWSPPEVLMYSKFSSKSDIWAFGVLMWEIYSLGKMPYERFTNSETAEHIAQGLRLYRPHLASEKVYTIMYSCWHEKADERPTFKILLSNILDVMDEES

| SMILES | Normalized KRAS levels in NCI-H2030 cells treated with Compounds for 24 hours (KRAS; 3.33 μM compound concentration) [%] | Normalized KRAS levels in NCI-H2030 cells treated with Compounds for 24 hours (KRAS; 10 μM compound concentration) [%] | Normalized BTK levels in NAMALWA cells treated with Compounds for 24 hours after 4 hours of starvation in EBSS (BTK; 3.33 μM compound concentration) [%] | Normalized BTK levels in NAMALWA cells treated with Compounds for 24 hours after 4 hours of starvation in EBSS (BTK; 10 μM compound concentration) [%] | other results |
| --- | --- | --- | --- | --- | --- |
| C=C(F)C(=O)N1CCN(c2nc(OC[C@@H]3CCCN3CCCOCCOc3c(Br)cc(C=C4C(=O)Nc5ccc(I)cc54)cc3Br)nc3c2CCN(c2cccc4cccc(Cl)c24)C3)C[C@@H]1CC#N [Example 2, 2-((S)-4-(7-(8-chloronaphthalen-1-yl)-2-(((S)-1-(3-(2-(2,6-dibromo-4-((5-iodo-2-oxoindolin-3-ylidene)methyl)phenoxy)ethoxy)propyl)pyrrolidin-2-yl)methoxy)-5,6,7,8-tetrahydropyrido[3,4-d]pyrimidin-4-yl)-1-(2-fluoroacryloyl)piperazin-2-yl)acetonitrile] | 45.1 | 48.6 |  |  |  |
| C=C(F)C(=O)N1CCN(c2nc(OC[C@@H]3CCCN3CCCOCCOCCOc3c(Br)cc(C=C4C(=O)Nc5ccc(I)cc54)cc3Br)nc3c2CCN(c2cccc4cccc(Cl)c24)C3)C[C@@H]1CC#N [Example 3, 2-((S)-4-(7-(8-chloronaphthalen-1-yl)-2-(((S)-1-(3-(2-(2-(2,6-dibromo-4-((5-iodo-2-oxoindolin-3-ylidene)methyl)phenoxy)ethoxy)ethoxy)propyl)pyrrolidin-2-yl)methoxy)-5,6,7,8-tetrahydropyrido[3,4-d]pyrimidin-4-yl)-1-(2-fluoroacryloyl)piperazin-2-yl)acetonitrile] | 63.0 | 65.7 |  |  |  |
| C=C(F)C(=O)N1CCN(c2nc(OC[C@@H]3CCCN3CCCOCCOCCOCCOc3c(Br)cc(C=C4C(=O)Nc5ccc(I)cc54)cc3Br)nc3c2CCN(c2cccc4cccc(Cl)c24)C3)C[C@@H]1CC#N [Example 1, 2-((S)-4-(7-(8-chloronaphthalen-1-yl)-2-(((S)-1-(3-(2-(2-(2-(2,6-dibromo-4-((5-iodo-2-oxoindolin-3-ylidene)methyl)phenoxy)ethoxy)ethoxy)ethoxy)propyl)pyrrolidin-2-yl)methoxy)-5,6,7,8-tetrahydropyrido[3,4-d]pyrimidin-4-yl)-1-(2-fluoroacryloyl)piperazin-2-yl)acetonitrile] | 84.9 | 87.5 |  |  |  |
| Nc1ncnc2c1c(-c1ccc(Oc3ccccc3)cc1)nn2C1CCN(CCOCCOCCOCCOCCN2C(=O)C(=Cc3cc(Br)c(O)c(Br)c3)c3cc(I)ccc32)CC1.O=CO [Example 6, 1-(14-(4-(4-amino-3-(4-phenoxyphenyl)-1H-pyrazolo[3,4-d]pyrimidin-1-yl)piperidin-1-yl)-3,6,9,12-tetraoxatetradecyl)-3-(3,5-dibromo-4-hydroxybenzylidene)-5-iodo indolin-2-one formate] |  |  |  |  | Normalized BTK levels in NAMALWA cells treated with Compounds for 24 hours after 4 hours of starvation in EBSS (BTK; 10 μM column, footnote: tested at 11.1 uM from 100 uM top concentration): ~58.7%*; Normalized BTK levels in NAMALWA cells treated with Compounds for 24 hours after 4 hours of starvation in EBSS (BTK; 30 μM column, footnote: tested at 33.3 uM from 100 uM top concentration): ~30.1%* |
| Nc1ncnc2c1c(-c1ccc(Oc3ccccc3)cc1)nn2C1CCN(CCOCCOCCN/C(=C2\C(=O)Nc3ccc(Br)cc32)c2cccc(O)c2)CC1 [Example 8, (3Z)-3-[[2-[2-[2-[4-[4-amino-3-(4-phenoxyphenyl)pyrazolo[3,4-d]pyrimidin-1-yl]-1-piperidyl]ethoxy]ethoxy]ethylamino]-(3-hydroxyphenyl)methylene]-5-bromo-indolin-2-one] |  |  | 83.1 | 66.3 |  |
| Nc1ncnc2c1c(-c1ccc(Oc3ccccc3)cc1)nn2C1CCN(CCOCCOCCOCCN/C(=C2\C(=O)Nc3ccc(Br)cc32)c2cccc(O)c2)CC1.O=CO [Example 7, (3Z)-3-[[2-[2-[2-[2-[4-[4-amino-3-(4-phenoxyphenyl)pyrazolo[3,4-d]pyrimidin-1-yl]-1-piperidyl]ethoxy]ethoxy]ethoxy]ethylamino]-(3-hydroxyphenyl)methylene]-5-bromo-indolin-2-one formate] |  |  | 67.0 | 48.2 |  |
